The text below walks through data of ChEMBL document CHEMBL1134431, “Chemoenzymatic synthesis of functionalized cyclohexylglycines and alpha-methylcyclohexylglycines via Kazmaier-Claisen rearrangement” (Bioorg Med Chem Lett, 2001).

In one experiment the target is Stromelysin-1 (Homo sapiens, UniProt P08254). Nature of the experiment: Inhibition of Stromelysin (Matrix metalloprotease-3).
In the next experiment the target is Collagenase 3 (Homo sapiens, UniProt P45452). Nature of the experiment: Inhibition of Collagenase 3 (Matrix metalloprotease-13).
Experiment [1] has as its target 72 kDa type IV collagenase (Homo sapiens, UniProt P08253). Description: Inhibition of gelatinase A (Matrix metalloprotease-2).

Sequence of 72 kDa type IV collagenase (P08253 whole entry): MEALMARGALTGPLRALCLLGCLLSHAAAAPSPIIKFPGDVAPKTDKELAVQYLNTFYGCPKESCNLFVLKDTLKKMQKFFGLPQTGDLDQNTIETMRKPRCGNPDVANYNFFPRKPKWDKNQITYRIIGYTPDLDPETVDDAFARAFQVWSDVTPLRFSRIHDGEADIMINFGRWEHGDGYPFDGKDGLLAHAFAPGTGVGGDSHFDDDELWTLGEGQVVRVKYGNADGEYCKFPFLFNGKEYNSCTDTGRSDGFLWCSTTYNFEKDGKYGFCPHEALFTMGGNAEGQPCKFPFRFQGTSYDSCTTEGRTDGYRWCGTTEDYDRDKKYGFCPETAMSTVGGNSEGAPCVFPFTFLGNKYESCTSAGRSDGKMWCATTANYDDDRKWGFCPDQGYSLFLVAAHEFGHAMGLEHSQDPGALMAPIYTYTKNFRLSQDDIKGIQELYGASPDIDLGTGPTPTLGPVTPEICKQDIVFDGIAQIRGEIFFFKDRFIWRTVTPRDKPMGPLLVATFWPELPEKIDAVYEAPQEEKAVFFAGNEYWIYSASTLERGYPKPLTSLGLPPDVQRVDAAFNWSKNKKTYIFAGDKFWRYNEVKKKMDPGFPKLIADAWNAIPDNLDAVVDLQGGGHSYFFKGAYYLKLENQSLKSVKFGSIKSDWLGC
Sequence of Stromelysin-1 (P08254 whole entry): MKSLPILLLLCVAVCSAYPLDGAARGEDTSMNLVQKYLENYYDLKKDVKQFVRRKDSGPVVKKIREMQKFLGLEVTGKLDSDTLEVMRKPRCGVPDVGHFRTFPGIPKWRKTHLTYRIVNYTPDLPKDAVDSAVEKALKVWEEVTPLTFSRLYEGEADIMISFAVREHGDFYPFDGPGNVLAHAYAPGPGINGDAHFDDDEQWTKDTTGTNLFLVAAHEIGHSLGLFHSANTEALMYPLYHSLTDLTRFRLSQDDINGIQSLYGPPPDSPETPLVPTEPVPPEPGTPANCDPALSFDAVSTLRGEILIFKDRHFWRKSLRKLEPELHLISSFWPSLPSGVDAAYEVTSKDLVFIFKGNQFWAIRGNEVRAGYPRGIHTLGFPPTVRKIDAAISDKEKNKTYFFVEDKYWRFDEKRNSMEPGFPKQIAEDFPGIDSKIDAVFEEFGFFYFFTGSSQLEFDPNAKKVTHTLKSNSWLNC

Take `COc1ccc(-c2ccc(S(=O)(=O)N[C@@H](C(=O)O)C3C=C[C@@H](O)CC3)cc2)cc1` (some centres not stated): the IC50 at Stromelysin-1 was 2.49 µM; against Collagenase 3, 176 nM; in experiment [1] it was 20 nM.

Turning to `COc1ccc(-c2ccc(S(=O)(=O)N[C@@H](C(=O)O)C3CC[C@H](O)C=C3Br)cc2)cc1` (some centres not stated), the IC50 against Stromelysin-1 turned out to be 3.8 µM; against Collagenase 3, 131 nM; in experiment [1], 38 nM.

`COc1ccc(-c2ccc(S(=O)(=O)N[C@@H](C(=O)O)C3CCC(O)CC3)cc2)cc1` (some centres not stated): the concentration for half-maximal inhibition (IC50) came out at 1.22 µM at Stromelysin-1, 30 nM against Collagenase 3 and 12 nM in experiment [1].

For `COc1ccc(-c2ccc(S(=O)(=O)N[C@@](C)(C(=O)O)C3CCC(O)CC3)cc2)cc1` (some centres not stated), the half-inhibitory concentration (IC50) against Stromelysin-1 amounted to 6.15 µM; at Collagenase 3 it was 338 nM; in experiment [1], 251 nM.

What is called IC50 is the concentration that gives 50% inhibition. Higher therefore signals weaker potency in that assay.
